Assays:
[1] = tested on: CBR; assay: Luminescence of CBR using Aka Lumine, PBI-4739 and PBI-4813; type: biochemical, click beetle; conditions: FIG. 19A
Excerpt: (§1) FIG. 19A and FIG. 19B illustrate the luminescence of CBR using Aka Lumine, PBI-4739 and PBI-4813 (FIG. 19A) and the spectral scan of QuantiLum® Recombinant Luciferase using Aka Lumine as substrate (FIG. 19B).

[2] = target: T1, QuantiLum® Recombinant Luciferase (Photinus pyralis, UniProt P08659); assay: Spectral scan using Aka Lumine as substrate; type: biochemical; conditions: FIG. 19B
T1 construct: purchased Promega E1701
Excerpt: as §1

T1 sequence (P08659 whole entry): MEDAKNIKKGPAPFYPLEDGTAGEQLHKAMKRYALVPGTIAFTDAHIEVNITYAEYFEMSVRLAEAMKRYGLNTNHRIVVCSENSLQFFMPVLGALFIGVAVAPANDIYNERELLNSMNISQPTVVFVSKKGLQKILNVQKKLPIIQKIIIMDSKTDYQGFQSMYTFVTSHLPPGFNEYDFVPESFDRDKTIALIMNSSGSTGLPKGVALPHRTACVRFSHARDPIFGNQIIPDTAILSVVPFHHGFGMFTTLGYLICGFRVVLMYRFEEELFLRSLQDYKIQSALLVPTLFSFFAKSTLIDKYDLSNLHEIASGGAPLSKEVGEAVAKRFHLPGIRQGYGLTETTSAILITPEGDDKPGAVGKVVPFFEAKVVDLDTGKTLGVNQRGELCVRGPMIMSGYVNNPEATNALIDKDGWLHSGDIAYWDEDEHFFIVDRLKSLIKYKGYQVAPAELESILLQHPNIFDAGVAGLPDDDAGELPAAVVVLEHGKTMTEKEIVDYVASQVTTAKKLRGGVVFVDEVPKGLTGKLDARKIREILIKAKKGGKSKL

`CN(C)c1ccc(/C=C/C=C/C2=N[C@@H](C(=O)O)CS2)cc1` [Aka Lumine] was tested, and the brightness [1] was “dimmer” and the “emission wavelength (less red)” value [2] was 675 nm.

From patent US12460245B2, “Luciferase sequences utilizing infrared-emitting substrates to produce enhanced luminescence” (Promega Corporation, priority 2014, dated 2025)
